Source: patent publication US10975056B2 (GlaxoSmithKline Intellectual Property Development Limited, priority 2016, dated 2021)
Counter-ions that a name gives are not always drawn. Like-named read-outs stand apart in the source and are kept apart here.

How the values were obtained:
[1] = test system: erythroid progenitor cells (EPCs); test: Fetal hemoglobin (HbF) ELISA in day 7 erythroid progenitor cells; type: cell-based, human; details: Homo sapiens, Erythroid progenitor cell, HbF ELISA, day 7 EPCs, 5 days; read-out: EPC ELISA (pEC50 category) (converted)
Experimental: Day 7 EPCs were cultured in duplicate plates with serially diluted Compound A for 5 days at 37° C. Wells were then analyzed for either induction of fetal hemoglobin (HbF,HbF ELISA) or cell growth (Cell Titer-Glo). In both cases, signal was normalized to vehicle-control treated cells.
Culture, Expansion, and Characterization of Day 7 Erythroid Progenitor Cells (EPC)s
All donors provided written informed consent for use of their samples, and the collection and use of the samples received institutional review board approval. All cryopreserved human bone marrow CD34+ cells used here were obtained from AlICells (Emeryville, Calif.) and were generally from different donors. The CD34+ cells were cultured to generate EPCs at day 7. Briefly, 1 million cells were cultured in 5% CO2, 5% O2 at 37° C. in H3000 Stemspan media (StemCell Technologies Vancouver, BC, Canada) supplemented with 2 mM L-glutamine, 40 μg/mL human low-density lipoproteins (StemCell Technologies), 10 ng/mL recombinant human (rh) interleukin IL-3 (R&D Systems, Minneapolis, Minn.), 100 ng/mL rh stem cell factor (R&D Systems), and 0.5 U/mL rh erythropoietin (Invitrogen, Grand Island, N.Y.). Cells were split and refed on day 4 with complete culture media described above and harvested on day 7 for evaluation of erythroid marker expression and assessment of γ-globin induction. Day 7 EPCs were then frozen in liquid nitrogen at 5 to 10 million cells/mL in 95% fetal bovine serum (FBS; Invitrogen) with 5% DMSO for subsequent use.
At the time of compound treatment, frozen day 7 EPCs prepared as described above were thawed, washed once and re-suspended in complete culture media as described above with the exception of an increase of rhEPO to 3 U/mL. Cells were counted and diluted to […] for plating into assay plates. Cells were then dispensed, at 30 μL per well with Multidrop™ Combi Reagent Dispenser (Thermo Scientific), into 384-well cell culture plates into which test compounds were pre-dispensed at 100 nL/well. Black Clear Bottom (Greiner Bio-One; 781090) and White (Greiner Bio-One; 781080) plates were used for ELISA and Cell Titer-Glo assays, respectively. The final cell density in the assays is 1,000 cells per well, with final compound concentrations between 33 nM (highest) and […] (lowest) for the 22-points serial dilution.
Fetal Hemoglobin (HbF) ELISA
Coating anti-HbF Ab (Bethyl Lab; cat. A80-136A) was diluted by 100-fold in the coating buffer (0.05 M carbonate-bicarbonate, pH 9.6), and then 20 μL/well was added to a 384-well MaxiSorp ELISA plate (Thermo Fisher; cat. 464718). After 1 hour incubation at room temperature, the plates were washed twice with ELISA washing buffer (50 mM Tris, 0.05% Tween 20, pH 8.0) with an EL406 plate washer (BioTek, Winooski, Vt.). Then, 40 μL/well of blocking buffer consisting of 50 mM Tris and 1% BSA (pH 8.0) was added to the plate and stored at 4° C. with cover sheet overnight, or until time of the assay. The coated ELISA plates were stable for up to 30 days at 4° C. On the day of assay, the plates were washed twice with ELISA washing buffer prior to addition of cell lysate.
After 5 days at 37° C. with 5% CO2 cell culture plates for ELISA assay were put into −80° C. freezer for a minimum of 2 hours. After thawing at room temperature, 30 μL of cell lysis buffer (Invitrogen; cat. FNN0011, supplemented with 1× protease inhibitor) was added to each well and the resulting cell lysate was mixed eight times with a Cybi-Well (Jena, Germany) pipettor. Following the mixing procedure, 20 μL/well of lysate was transferred to the coated ELISA plates described above followed by a 1 hour incubation at room temperature. The ELISA assay plates were washed three times with ELISA wash buffer. 20 μL per well of 1:75,000 to 100,000 diluted horseradish peroxidase (HRP) conjugate detection antiHbF Ab (Bethyl Labs; cat. A80-136P, diluted in 50 mM Tris [pH 8.0], 1% BSA, 0.05% Tween-20) was then added. […]

[2] = target: DNMT1 (Homo sapiens, UniProt P26358); test: DNMT1 biochemical activity, breaklight assay and/or SPA assay
[3] = binned activity in either the breaklight or the SPA assay
[4] = breaklight assay and/or SPA assay, repeated experimental runs
[5] = breaklight assay and/or SPA assay, repeated experimental runs, read-out: average pIC50 against DNMT1 (converted)
[6] = binned activity in either the breaklight or the SPA assay, read-out: DNMT1 BioChemical (pIC50 category) (converted)

Chain of DNMT1 (P26358 whole entry, looked up): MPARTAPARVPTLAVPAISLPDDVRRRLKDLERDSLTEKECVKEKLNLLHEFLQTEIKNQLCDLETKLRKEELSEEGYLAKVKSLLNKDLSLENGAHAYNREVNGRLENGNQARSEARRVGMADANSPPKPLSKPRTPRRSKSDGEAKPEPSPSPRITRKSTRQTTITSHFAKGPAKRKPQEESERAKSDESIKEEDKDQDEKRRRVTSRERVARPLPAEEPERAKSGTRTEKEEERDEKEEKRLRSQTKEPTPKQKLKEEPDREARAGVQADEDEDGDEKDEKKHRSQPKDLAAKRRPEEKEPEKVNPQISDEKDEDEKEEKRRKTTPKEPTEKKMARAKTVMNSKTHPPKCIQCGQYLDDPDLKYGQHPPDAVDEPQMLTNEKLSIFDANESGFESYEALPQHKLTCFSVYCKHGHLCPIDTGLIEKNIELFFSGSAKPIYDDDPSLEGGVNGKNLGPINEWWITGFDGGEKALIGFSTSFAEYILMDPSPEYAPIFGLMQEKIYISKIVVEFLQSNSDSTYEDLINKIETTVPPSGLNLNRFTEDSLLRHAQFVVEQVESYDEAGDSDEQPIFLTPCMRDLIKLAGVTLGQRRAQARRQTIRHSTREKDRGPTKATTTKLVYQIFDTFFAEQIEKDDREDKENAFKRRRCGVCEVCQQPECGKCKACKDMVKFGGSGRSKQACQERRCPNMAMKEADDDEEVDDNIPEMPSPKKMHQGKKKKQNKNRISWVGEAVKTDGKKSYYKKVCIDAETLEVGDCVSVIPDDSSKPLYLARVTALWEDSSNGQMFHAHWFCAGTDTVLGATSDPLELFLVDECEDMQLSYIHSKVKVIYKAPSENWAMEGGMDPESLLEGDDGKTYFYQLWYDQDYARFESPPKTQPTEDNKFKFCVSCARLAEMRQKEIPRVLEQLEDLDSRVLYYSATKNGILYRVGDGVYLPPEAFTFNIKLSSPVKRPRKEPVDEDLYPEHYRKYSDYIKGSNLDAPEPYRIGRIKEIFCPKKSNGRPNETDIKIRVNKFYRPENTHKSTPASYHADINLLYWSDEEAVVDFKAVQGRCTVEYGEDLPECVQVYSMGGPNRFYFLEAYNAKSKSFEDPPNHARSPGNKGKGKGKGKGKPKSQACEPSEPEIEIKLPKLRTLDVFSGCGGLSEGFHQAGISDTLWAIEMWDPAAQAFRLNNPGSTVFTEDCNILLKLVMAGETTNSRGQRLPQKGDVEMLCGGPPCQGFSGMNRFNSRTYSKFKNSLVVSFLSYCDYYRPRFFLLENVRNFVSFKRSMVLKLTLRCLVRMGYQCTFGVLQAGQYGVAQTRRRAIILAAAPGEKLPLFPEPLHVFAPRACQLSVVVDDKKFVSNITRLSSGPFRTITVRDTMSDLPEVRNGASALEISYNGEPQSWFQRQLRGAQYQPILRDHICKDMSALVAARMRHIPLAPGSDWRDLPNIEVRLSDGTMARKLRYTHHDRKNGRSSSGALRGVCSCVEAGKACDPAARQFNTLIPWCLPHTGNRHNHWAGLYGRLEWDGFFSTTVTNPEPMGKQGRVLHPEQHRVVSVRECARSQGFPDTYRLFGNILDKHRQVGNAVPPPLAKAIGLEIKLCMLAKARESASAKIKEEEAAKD

With CCc1c(C#N)c(S[C@@H](C(N)=O)c2ccc(F)cc2)nc(N2CC[C@H](O)C2)c1C#N [Example 425] the EC50 [1] was 316 to 1000 nM, the “DNMT1 BioChemical (pIC50 category)” value [2, 3] was “D (Category D: ≥6.5)” and the “average pIC50 against DNMT1” value [2, 4] was over 6.5. For the same compound, the IC50 [2, 5] was 158 nM.

CCc1c(C#N)c(SCc2ccc(C#N)cc2)nc(N2CCCN(C)CC2)c1C#N [Example 93, 2-((4-Cyanobenzyl)thio)-4-ethyl-6-(4-methyl-1,4-diazepan-1-yl)pyridine-3,5-dicarbonitrile] showed an EC50 [1] of over 31600 nM and an IC50 [2, 6] of 316 to 1000 nM.

CCc1c(C#N)c(SCc2ccc(N(C)S(C)(=O)=O)cc2)nc(N2CCC(NCCOC)CC2)c1C#N [Example 557, N-(4-(((3,5-dicyano-4-ethyl-6-(4-((2-methoxyethyl)amino)piperidin-1-yl)pyridin-2-yl)thio)methyl)phenyl)-N-methylmethanesulfonamide] was tested, and the EC50 [1] was under 316 nM and the “DNMT1 BioChemical (pIC50 category)” value [2, 3] was “D (Category D: ≥6.5)”.

In the case of CCc1c(C#N)c(SC(C(N)=O)c2ccc(C(=O)c3ccccc3)cc2)nc(N2CCCN(CCO)CC2)c1C#N (stereo not drawn) [Example 245, 2-(4-Benzoylphenyl)-2-((3,5-dicyano-4-ethyl-6-(4-(2-hydroxyethyl)-1,4-diazepan-1-yl)pyridin-2-yl)thio)acetamide], the EC50 [1] is reported as 316 to 1000 nM and the IC50 [2, 6] is reported as 316 to 1000 nM.

In the case of CCc1c(C#N)c(SC(C(N)=O)c2ccccc2)nc(N2CC(NC(=O)CO)C2)c1C#N (stereo not drawn) [Example 288, N-(1-(6-((2-Amino-2-oxo-1-phenylethyl)thio)-3,5-dicyano-4-ethylpyridin-2-yl)azetidin-3-yl)-2-hydroxyacetamide], the EC50 [1] is reported as 1000 to 31600 nM and the “DNMT1 BioChemical (pIC50 category)” value [2, 3] is reported as “D (Category D: ≥6.5)”.

CCc1c(C#N)c(SC(C(N)=O)c2ccccc2)nc(N2CC[C@@H](N)C2)c1C#N (stereo partly drawn) [Example 524, 2-((6-((R)-3-aminopyrrolidin-1-yl)-3,5-dicyano-4-ethylpyridin-2-yl)thio)-2-phenylacetamide] was tested, and the EC50 [1] was under 316 nM and the “DNMT1 BioChemical (pIC50 category)” value [2, 3] was “D (Category D: ≥6.5)”.

CCc1c(C#N)c(SCc2ccc(NS(C)(=O)=O)nc2)nc(N2CCCN(C)CC2)c1C#N [Example 335, N-(5-(((3,5-dicyano-4-ethyl-6-(4-methyl-1,4-diazepan-1-yl)pyridin-2-yl)thio)methyl)pyridin-2-yl)methanesulfonamide] was tested, and the EC50 [1] was over 31600 nM and the IC50 [2, 6] was 316 to 1000 nM.

With CCc1c(C#N)c(SC(C(N)=O)c2ccccc2)nc(N(C)Cc2nnc[nH]2)c1C#N (stereo not drawn) [Example 341, 2-((6-(((4H-1,2,4-Triazol-3-yl)methyl)(methyl)amino)-3,5-dicyano-4-ethylpyridin-2-yl)thio)-2-phenylacetamide] the EC50 [1] was under 316 nM and the “DNMT1 BioChemical (pIC50 category)” value [2, 3] was “D (Category D: ≥6.5)”.

For CCc1c(C#N)c(SCc2ccc(N(C)S(C)(=O)=O)cc2)nc(N2CCC(N)CC2)c1C#N [Example 587, N-(4-(((6-(4-aminopiperidin-1-yl)-3,5-dicyano-4-ethylpyridin-2-yl)thio)methyl)phenyl)-N-methylmethanesulfonamide], the EC50 [1] was under 316 nM and the “DNMT1 BioChemical (pIC50 category)” value [2, 3] was “D (Category D: ≥6.5)”.

Work on CCc1c(C#N)c(SC(C(N)=O)c2ccccc2)nc(N2CCN(C(C)(C)CO)CC2)c1C#N (stereo not drawn) [Example 189] yielded an EC50 [1] of 316 to 1000 nM and an IC50 [2, 6] of 316 to 1000 nM.

With CCc1c(C#N)c(SC(C(N)=O)c2ccccc2)nc(N2CC(F)(CN)C2)c1C#N (stereo not drawn) [Example 688, 2-((6-(3-(aminomethyl)-3-fluoroazetidin-1-yl)-3,5-dicyano-4-ethylpyridin-2-yl)thio)-2-phenylacetamide] the EC50 [1] was 1000 to 31600 nM and the “DNMT1 BioChemical (pIC50 category)” value [2, 3] was “D (Category D: ≥6.5)”.

CCc1c(C#N)c(SC(C(N)=O)c2ccc(F)cc2)nc(N2CC[C@@H](N(C)C)C2)c1C#N (stereo partly drawn) [Example 530, 2-((3,5-dicyano-6-((R)-3-(dimethylamino)pyrrolidin-1-yl)-4-ethylpyridin-2-yl)thio)-2-(4-fluorophenyl)acetamide] was tested, and the EC50 [1] was 1000 to 31600 nM and the “DNMT1 BioChemical (pIC50 category)” value [2, 3] was “D (Category D: ≥6.5)”.

Compound CCc1c(C#N)c(SCc2cnn(CCO)c2)nc(N2CCC(N)CC2)c1C#N [Example 363] has an EC50 [1] of 1000 to 31600 nM and an IC50 [2, 6] of 316 to 1000 nM.

CCc1c(C#N)c(SC(C(N)=O)c2ccccc2)nc(N2CCC(N3CCCC3)CC2)c1C#N (stereo not drawn) [Example 411, 2-((3,5-Dicyano-4-ethyl-6-(4-(pyrrolidin-1-yl)piperidin-1-yl)pyridin-2-yl)thio)-2-phenylacetamide] was tested, and the EC50 [1] was under 316 nM and the “DNMT1 BioChemical (pIC50 category)” value [2, 3] was “D (Category D: ≥6.5)”.

With CCc1c(C#N)c(SCc2ccc(N(C)S(C)(=O)=O)cc2)nc(N2CCCN(C)CC2)c1C#N [Example 355, N-(4-(((3,5-Dicyano-4-ethyl-6-(4-methyl-1,4-diazepan-1-yl)pyridin-2-yl)thio)methyl)phenyl)-N-methylmethanesulfonamide] the EC50 [1] was under 316 nM and the “DNMT1 BioChemical (pIC50 category)” value [2, 3] was “D (Category D: ≥6.5)”.

CCc1c(C#N)c(SC(C(N)=O)c2ccc(F)nc2)nc(N2CCCN(C)CC2)c1C#N (stereo not drawn) [Example 228] was tested, and the EC50 [1] was 316 to 1000 nM and the IC50 [2, 6] was 1000 to 31600 nM.

Compound CCc1c(C#N)c(SCc2ccc(CNC(C)=O)cc2)nc(N2CCC(NC(C)=O)CC2)c1C#N [Example 290, N-(1-(6-((4-(Acetamidomethyl)benzyl)thio)-3,5-dicyano-4-ethylpyridin-2-yl)piperidin-4-yl)acetamide] has an EC50 [1] of 1000 to 31600 nM and an IC50 [2, 6] of 316 to 1000 nM.

In the case of CCc1c(C#N)c(SC(C(N)=O)c2ccccc2)nc(N2CCN(Cc3ccon3)CC2)c1C#N (stereo not drawn) [Example 183, 2-((3,5-Dicyano-4-ethyl-6-(4-(isoxazol-3-ylmethyl)piperazin-1-yl)pyridin-2-yl)thio)-2-phenylacetamide], the EC50 [1] is reported as 1000 to 31600 nM and the IC50 [2, 6] is reported as 316 to 1000 nM.

In the case of CCc1c(C#N)c(SC(C(N)=O)c2ccccc2)nc(N(C)CC(=O)NCCN)c1C#N (stereo not drawn) [Example 630, 2-((6-((2-amino-2-oxo-1-phenylethyl)thio)-3,5-dicyano-4-ethylpyridin-2-yl)(methyl)amino)-N-(2-aminoethyl)acetamide hydrochloride], the EC50 [1] is reported as under 316 nM and the “DNMT1 BioChemical (pIC50 category)” value [2, 3] is reported as “D (Category D: ≥6.5)”.

CCc1c(C#N)c(S[C@@H](C(N)=O)c2ccccc2)nc(N2CC[C@@H](N)[C@H](O)C2)c1C#N [Example 523, (R)-2-((6-((3R,4R)-4-amino-3-hydroxypiperidin-1-yl)-3,5-dicyano-4-ethylpyridin-2-yl)thio)-2-phenylacetamide 2,2,2-trifluoroacetate*] was tested, and the EC50 [1] was under 316 nM, the “DNMT1 BioChemical (pIC50 category)” value [2, 3] was “D (Category D: ≥6.5)” and the “average pIC50 against DNMT1” value [2, 4] was over 6.5. The IC50 [2, 5] was 79.4 nM.

CCc1c(C#N)c(SC(C(N)=O)c2ccccc2)nc(N2CCC(NC(C)(C)C(=O)OC)CC2)c1C#N (stereo not drawn) [Example 487, methyl 2-((1-(6-((2-amino-2-oxo-1-phenylethyl)thio)-3,5-dicyano-4-ethylpyridin-2-yl)piperidin-4-yl)amino)-2-methylpropanoate] was tested, and the EC50 [1] was under 316 nM and the “DNMT1 BioChemical (pIC50 category)” value [2, 3] was “D (Category D: ≥6.5)”.

For CCc1c(C#N)c(SC(C(N)=O)c2ccccc2)nc(N(C)CC(=O)N(C)CCCO)c1C#N (stereo not drawn) [Example 665, 2-((6-((2-amino-2-oxo-1-phenylethyl)thio)-3,5-dicyano-4-ethylpyridin-2-yl)(methyl)amino)-N-(3-hydroxypropyl)-N-methylacetamide], the EC50 [1] was under 316 nM and the “DNMT1 BioChemical (pIC50 category)” value [2, 3] was “D (Category D: ≥6.5)”.
